Measurements reported in ChEMBL document CHEMBL3098092, “Fluorescent probes of the isoxazole-dihydropyridine scaffold: MDR-1 binding and homology model” (Bioorg Med Chem Lett, 2014).

Key:
[1] = Drug uptake in human SH-SY5Y cells at 10 uM after 90 mins by confocal fluorescence microscopy analysis; assay type: ADME, cell-based; settings: 1.5 h
[2] = target: MDR-1 (P-glycoprotein, ABCB1) (Homo sapiens, UniProt P08183); assay: Inhibition of MDR-1 (unknown origin) expressed in human Caco2 cells using Calcein-AM at 50 uM preincubated for 30 mins by fluorescence based PDSP assay relative to control; assay type: cell-based; settings: Caco-2 cells expressing MDR-1, probe Calcein-AM
Sequence of MDR-1 (P-glycoprotein, ABCB1) (P08183 whole entry): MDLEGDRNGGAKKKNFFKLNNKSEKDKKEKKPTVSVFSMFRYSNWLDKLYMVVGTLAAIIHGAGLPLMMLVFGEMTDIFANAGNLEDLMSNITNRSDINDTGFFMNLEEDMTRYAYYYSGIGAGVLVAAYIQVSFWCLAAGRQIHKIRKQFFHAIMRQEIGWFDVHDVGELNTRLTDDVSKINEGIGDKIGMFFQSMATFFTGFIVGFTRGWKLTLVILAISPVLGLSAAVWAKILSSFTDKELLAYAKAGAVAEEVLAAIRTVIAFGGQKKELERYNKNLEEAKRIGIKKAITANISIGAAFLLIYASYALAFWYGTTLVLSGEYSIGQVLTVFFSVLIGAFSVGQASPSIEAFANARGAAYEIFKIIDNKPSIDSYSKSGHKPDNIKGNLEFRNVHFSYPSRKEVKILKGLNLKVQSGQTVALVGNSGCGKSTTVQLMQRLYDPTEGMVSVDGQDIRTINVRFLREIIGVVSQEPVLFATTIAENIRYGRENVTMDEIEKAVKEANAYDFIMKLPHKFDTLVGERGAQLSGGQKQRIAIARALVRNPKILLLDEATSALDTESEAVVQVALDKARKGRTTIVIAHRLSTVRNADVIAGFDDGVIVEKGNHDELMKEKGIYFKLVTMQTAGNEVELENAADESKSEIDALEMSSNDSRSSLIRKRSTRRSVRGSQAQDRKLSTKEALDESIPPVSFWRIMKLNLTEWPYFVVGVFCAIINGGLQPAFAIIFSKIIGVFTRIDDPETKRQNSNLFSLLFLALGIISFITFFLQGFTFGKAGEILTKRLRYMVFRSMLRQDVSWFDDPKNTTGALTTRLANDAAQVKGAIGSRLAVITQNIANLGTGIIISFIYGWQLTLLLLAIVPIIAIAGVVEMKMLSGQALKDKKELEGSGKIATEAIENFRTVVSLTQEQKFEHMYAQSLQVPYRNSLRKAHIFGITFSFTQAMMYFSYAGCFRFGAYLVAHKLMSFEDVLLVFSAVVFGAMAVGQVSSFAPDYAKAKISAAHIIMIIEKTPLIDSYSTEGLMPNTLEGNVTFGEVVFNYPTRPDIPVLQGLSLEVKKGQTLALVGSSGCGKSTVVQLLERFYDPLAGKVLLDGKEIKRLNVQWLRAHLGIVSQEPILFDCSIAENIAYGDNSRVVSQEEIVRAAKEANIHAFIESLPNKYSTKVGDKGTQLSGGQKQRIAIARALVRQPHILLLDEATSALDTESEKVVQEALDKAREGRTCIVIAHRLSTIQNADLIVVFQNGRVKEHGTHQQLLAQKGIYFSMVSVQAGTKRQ

[3] = Drug uptake in human SH-SY5Y cells at 1 uM after 90 mins by confocal fluorescence microscopy analysis; assay type: ADME, cell-based; settings: 1.5 h

Structure (SMILES)	Drug uptake [1]	inhibition at 30 min, 50 µM [2]	Drug uptake [3]
CCOC(=O)C1=C(C)NC(C)=C(C(=O)NCCCCCCCCNS(=O)(=O)c2cccc3c(N(C)C)cccc23)C1c1c(-c2ccccc2)noc1C (stereo not drawn)	Active	63%	–
CCOC(=O)C1=C(C)NC(C)=C(C(=O)NCCCCCCNS(=O)(=O)c2ccc(-c3c4ccc(N(CC)CC)cc4[o+]c4cc(N(CC)CC)ccc34)c(S(=O)(=O)[O-])c2)C1c1c(-c2ccccc2)noc1C (stereo not drawn)	–	–	Active
